The source made the active and inactive calls. The rule behind the calls is not given here.
What was measured:
cells = settings: Homo sapiens, HCT-116, 72 h
A549 [1] = experiment: cells; settings: Homo sapiens, A549, 72 h
Description: Cytotoxicity against human A549 cells after 72 hrs by MTT assay

HeLa = experiment: cells; settings: Homo sapiens, 72 h
Description: Cytotoxicity against human HeLa cells after 72 hrs by MTT assay

Tubulin [2] = experiment: Inhibition of tubulin (unknown origin) polymerization after 1 hr by multiplate reader method; type: protein-complex assay, Homo sapiens
Tubulin [3] = experiment: Inhibition of colchicine binding to tubulin (unknown origin); type: protein-complex assay, Homo sapiens
A549 [4] = experiment: Induction of growth arrest in human A549 cells assessed as mitotic chromosomes level at 1 uM after 6 to 48 hrs by fluorescence microscopy; type: functional, cell-based
Tubulin (Homo sapiens) = Tubulin (Homo sapiens) (UniProt P68371+Q9H4B7+P0DPH7+P68366+Q13509+Q71U36+P04350+Q3ZCM7+P07437+P68363+Q9BQE3+Q6PEY2+Q13885+Q9BVA1+Q9BUF5); experiment: Inhibition of tubulin in human A549 cells assessed as disruption of microtubules at 1 uM incubated for 6 hrs by immunofluorescence staining; type: cell-based
A549 [5] = experiment: Induction of cell cycle arrest in human A549 cells assessed as accumulation at G2/M phase accumulation at 1 uM after 48 hrs by propidium iodide staining based flow cytometry; type: functional
A549 [6] = experiment: Induction of apoptosis in human A549 cells at 1 uM after 24 to 72 hrs by propidium iodide staining based flow cytometry; type: functional, cell-based
A549 [7] = experiment: Induction of growth arrest in human A549 cells assessed as MPM2 levels level at 1 uM after 6 to 48 hrs by immunofluorescence microscopy; type: functional, cell-based
A549 [8] = experiment: Increase in polyploid cells in human A549 cells at 1 uM after 24 to 72 hrs by propidium iodide staining based flow cytometry; type: functional, cell-based

| Compound | IC50 (cells) | IC50 (A549 [1]) | IC50 (HeLa) | further results |
| --- | --- | --- | --- | --- |
| O=C(/C=C/c1ccc(Cl)cc1Cl)c1cc2c(cc1OCCN1CCOCC1)OCS2 | 980 nM | 1730 nM | 1550 nM |  |
| COc1ccc(/C=C/C(=O)c2c(O)ccc3c2SCO3)cc1F | 6590 nM | 9430 nM | 6840 nM |  |
| CCCOc1cc2c(cc1C(=O)/C=C/c1ccc(OC)c(O)c1)OCS2 |  | 9 nM |  |  |
| COc1cc(/C=C/C(=O)c2cc3c(cc2OCCN2CCOCC2)OCS3)cc(OC)c1OC | 1440 nM | 2420 nM | 2370 nM |  |
| COc1cc2c(cc1C(=O)/C=C/c1ccc(CCN(C)C)cc1)SCO2 | 2540 nM | 3400 nM | 1970 nM |  |
| COc1ccc(/C=C/C(=O)c2cc3c(cc2OC)OCS3)cc1F | 209 nM | 320 nM | 111 nM |  |
| COc1ccc(/C=C/C(=O)c2c(O)ccc3c2SCO3)cc1OC | 2820 nM | 5670 nM | 4550 nM |  |
| CC(=O)O[C@H]1C(=O)[C@@]2(C)[C@H]([C@H](OC(=O)c3ccccc3)[C@]3(O)C[C@H](OC(=O)[C@H](O)[C@@H](NC(=O)c4ccccc4)c4ccccc4)C(C)=C1C3(C)C)[C@]1(OC(C)=O)CO[C@@H]1C[C@@H]2O [PACLITAXEL] | 4 nM |  |  |  |
| COc1ccc(/C=C/C(=O)c2cc3c(cc2OCCN2CCOCC2)OCS3)cc1F | 1220 nM | 4290 nM | 710 nM |  |
| COc1ccc(OC)c(/C=C/C(=O)c2cc3c(cc2OCCN2CCOCC2)OCS3)c1 | 1440 nM | 2720 nM | 2390 nM |  |
| COc1cc(OC)c(/C=C/C(=O)c2cc3c(cc2OCC(=O)O)OCS3)c(OC)c1 | > 10000 nM | > 10000 nM | > 10000 nM |  |
| COc1cc2c(cc1C(=O)/C=C/c1ccc(OCC(=O)O)cc1)SCO2 | > 10000 nM | > 10000 nM | > 10000 nM |  |
| COc1cc2c(cc1C(=O)/C=C/c1cc(Br)c(OC)c(OC)c1)SCO2 | 2070 nM | 3430 nM | 4040 nM |  |
| CN(C)CCOc1ccc(/C=C/C(=O)c2c(O)ccc3c2SCO3)cc1 | 1470 nM | 2050 nM | 1530 nM |  |
| COc1cc2c(cc1C(=O)/C=C/c1ccc(Cl)cc1)SCO2 | 2090 nM | 3000 nM | 1780 nM |  |
| O=C(/C=C/c1ccccc1Cl)c1c(O)ccc2c1SCO2 | 1670 nM | 3070 nM | 3070 nM |  |
| O=C(/C=C/c1ccc(Br)cc1)c1c(O)ccc2c1SCO2 | 2870 nM | 3910 nM | 2650 nM |  |
| COc1cc2c(cc1C(=O)/C=C/c1ccccc1)SCO2 | 2250 nM | 4100 nM | 1920 nM |  |
| COc1cc2c(cc1C(=O)/C=C/c1cccc(Cl)c1)SCO2 | 1180 nM | 2040 nM | 1440 nM |  |

| Compound | IC50 (cells) | IC50 (A549 [1]) | IC50 (HeLa) | further results |
| --- | --- | --- | --- | --- |
| O=C(/C=C/c1cccc(Cl)c1)c1c(O)ccc2c1SCO2 | 1310 nM | 2610 nM | 2010 nM |  |
| COc1ccc(/C=C/C(=O)c2cc3c(cc2OC)OCS3)cc1OC | 740 nM | 1190 nM | 568 nM |  |
| COc1cc2c(cc1C(=O)/C=C/c1ccc(Br)cc1)SCO2 | 2160 nM | 3120 nM | 2370 nM |  |
| COc1cccc2c1C(=O)c1c(O)c3c(c(O)c1C2=O)C[C@@](O)(C(=O)CO)C[C@@H]3O[C@H]1C[C@H](N)[C@H](O)[C@H](C)O1 [DOXORUBICIN] | 69 nM | 124 nM | 154 nM |  |
| COc1ccc(/C=C/C(=O)c2cc3c(cc2OCC(=O)O)OCS3)cc1 | > 10000 nM | > 10000 nM | > 10000 nM |  |
| COc1ccc(/C=C\c2cc(OC)c(OC)c(OC)c2)cc1O [COMBRETASTATIN A4] | 4 nM |  | 3 nM |  |
| COc1ccc(/C=C/C(=O)c2cc3c(cc2OC)SCO3)cc1O |  | 22 nM |  |  |
| COc1cc2c(cc1C(=O)/C=C/c1cccc(OC)c1OC)SCO2 | 3160 nM | 5040 nM | 4020 nM |  |
| COc1ccc(/C=C/C(=O)c2cc3c(cc2OC)SCO3)cc1 |  |  |  | IC50 (Tubulin [2]): 4150 nM; IC50 (Tubulin [3]): 108 nM |
| COc1ccc(/C=C/C(=O)c2c(O)ccc3c2SCO3)cc1 | 6900 nM | 10600 nM | 7700 nM |  |
| CCCOc1cc2c(cc1C(=O)/C=C/c1ccc(OC)c(O)c1)SCO2 | 12 nM | 12 nM | 5 nM |  |
| COc1cc(OC)c(/C=C/C(=O)c2cc3c(cc2OC)OCS3)c(OC)c1 | 352 nM | 308 nM | 152 nM |  |
| COc1cc2c(cc1C(=O)/C=C/c1cc(OC)c(OC)c(OC)c1)SCO2 | 2230 nM | 3470 nM | 4060 nM |  |
| O=C(/C=C/c1ccccc1)c1c(O)ccc2c1SCO2 | 2210 nM | 3660 nM | 2750 nM |  |
| COc1cc2c(cc1C(=O)/C=C/c1ccc(O)cc1)SCO2 | 8570 nM | 9080 nM | 3260 nM |  |
| COc1ccc(/C=C/C(=O)c2cc3c(cc2OCCN2CCOCC2)OCS3)cc1OC | 2290 nM | 3780 nM | 3730 nM |  |
| COc1ccc(/C=C/C(=O)c2cc3c(cc2OC)OCS3)cc1 | 275 nM | 352 nM | 109 nM | Activity (A549 [4]): Active; IC50 (Tubulin [2]): 5800 nM; inhibition (Tubulin (Homo sapiens)): Active; IC50 (Tubulin [3]): 489 nM; Activity (A549 [5]): Active; Activity (A549 [6]): Active; Activity (A549 [7]): Active; Activity (A549 [8]): Active |
| COc1cc(/C=C/C(=O)c2cc3c(cc2OCC(=O)O)OCS3)cc(OC)c1OC | > 10000 nM | > 10000 nM | > 10000 nM |  |

Source: ChEMBL document CHEMBL3352251, “Structural factors affecting affinity of cytotoxic oxathiole-fused chalcones toward tubulin” (Eur J Med Chem, 2015)
